From patent US20070077215A1, “Administration of phenylfurymethylthiazolidine-2,4-dione or phenylthienymethylthiazolidine-2,4-dione compounds for promoting and/or inducing and/or stimulating the pigmentation of keratinous substances and/or limiting their depigmentation and/or their whitening” (L'OREAL, priority 2005, published 2007)

The compounds below were run against T1, Type-1 15-PGDH (Homo sapiens, UniProt P15428) (assay: Test on type-1 15-PGDH (spectrophotometric enzyme inhibition)). Conditions: Tris buffer pH 7.4, 1.5 mM β-NAD, 50 μM prostaglandin E2, 37° C., 340 nm; read-out: IC50dh (concentration that reduces the enzymatic activity of 15-PGDH by 50%).
T1 construct: made in house
T1 sequence (P15428 1-266): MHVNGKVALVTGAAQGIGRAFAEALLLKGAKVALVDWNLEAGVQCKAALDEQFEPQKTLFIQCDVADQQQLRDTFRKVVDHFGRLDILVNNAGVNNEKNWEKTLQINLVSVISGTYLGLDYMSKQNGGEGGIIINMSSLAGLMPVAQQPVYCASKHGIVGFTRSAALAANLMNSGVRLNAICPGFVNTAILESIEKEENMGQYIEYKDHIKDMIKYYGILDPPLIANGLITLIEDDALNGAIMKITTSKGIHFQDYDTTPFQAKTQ
Assay type: biochemical
Experimental: The enzyme 15-PGDH is obtained as disclosed in FR 02/05067, assigned to the assignee hereof, in suspension in a medium adjusted to a concentration of 0.3 mg/ml and then blocked at −80° C. For the requirements of the test, this suspension is defrosted and stored in ice.
Furthermore, a 100 mM, pH=7.4, Tris buffer comprising 0.1 mM of dithiothreitol (D5545, Sigma-Aldrich, L'isle D'Abeau Chesne, BP 701, 38297, Saint Quentin Fallavier) 1.5 mM of β-NAD (N6522, Sigma-Aldrich, L'isle D'Abeau Chesne, BP 701, 38297, Saint Quentin Fallavier) and 50 μM of prostaglandin E2 (P4172, Sigma-Aldrich, L'isle D'Abeau Chesne, BP 701, 38297, Saint Quentin Fallavier) is prepared.
0.965 ml of this buffer (adjusted beforehand to 37° C.) is introduced into the cell of a spectrophotometer (Perkin-Elmer, Lambda 2) thermostatically controlled at 37° C., the measuring wavelength of which is adjusted to 340 nm. 0.035 ml of enzymatic suspension at 37° C. is introduced into the cell concomitantly with the recording (corresponding to an increase in the optical density at 340 nm). The maximum reaction rate is recorded.
The test values (comprising compound 1) are compared with the control value (without compound 1); the results shown represent either the percentage of inhibition of the enzymatic activity of 15-PGDH for a given concentration of compound of formula (I) or the concentration at which compound 1 reduces the enzymatic activity of 15-PGDH by 50%, namely IC50dh.

Compound | IC50
O=C1NC(=O)C(Cc2ccc(-c3cccc(C(F)(F)F)c3)o2)S1 (stereo not drawn) [Compound 2, 5-[5-(3-(trifluoromethyl)phenyl)fur-2-ylmethyl]-1,3-thiazolidine-2,4-dione] | 8.2 µM
O=C1N=C(O)C(Cc2ccc(-c3ccc(C(=O)O)cc3)o2)S1 (stereo not drawn) [Compound 1, 4-{5-[(2,4-dioxo-1,3-thiazolidin-5-yl)methyl]-2-furyl}benzoic acid] | 3 µM
CCOC(=O)c1cccc(-c2ccc(CC3SC(=O)NC3=O)o2)c1 (stereo not drawn) [Compound 4, Ethyl 3-{5-[(2,4-dioxo-1,3-thiazolidin-5-yl)methyl]-2-furyl}benzoate] | 4.6 µM
O=C1NC(=O)C(Cc2ccc(-c3cccc(Cl)c3)o2)S1 (stereo not drawn) [Compound 3, 5-{[5-(3-chlorophenyl)-2-furyl]methyl}-1,3-thiazolidine-2,4-dione] | 5.2 µM

Now from value to compound:

IC50 | Compound
17.7 µM | O=C1NC(=O)C(Cc2ccc(-c3ccc(C(F)(F)F)cc3)s2)S1 (stereo not drawn) [Compound 5, 5-({5-[4-(trifluoromethyl)phenyl]thien-2-yl}methyl)-1,3-thiazolidine-2,4-dione]
37.6 µM | O=C1NC(=O)C(Cc2ccc(-c3cccc(CO)c3)s2)S1 (stereo not drawn) [Compound 7, 5-({5-[3-(Hydroxymethyl)phenyl]-2-thienyl}methyl)-1,3-thiazolidine-2,4-dione]
